The values that follow come from patent US8362021B2, “Method for increasing the bioavailability of benzhydryl piperazine containing compounds” (Zalicus Pharmaceuticals Ltd., priority 2006, dated 2013).

A short description of this data set: Single dose, open-label food effect pharmacokinetic trial of oral capsules in healthy subjects. It counts as in vivo, human. The conditions noted are these: for bioavailability / Tmax: human, plasma, po; for bioavailability: healthy subjects; for Tmax: oral administration. The procedure: A single centre, single dose, open-label trial in healthy subjects was conducted. Study drug treatments were as follows: • Treatment A: Compound No. 1, in capsule form (25-400 mg) administered without food; • Treatment B: Compound No. 1, in capsule form (400-800 mg) administered with a normal fat meal; • Treatment C: Compound No. 1, in capsule form (400-1600 mg) administered with a high-fat meal.
In treatment A, subjects fasted overnight with water permitted up to one hour before dosing. One or more 25 mg or 100 mg capsules of Compound No. 1 were administered with 240 mL room temperature water. Subjects continued to fast for approximately 4 hours until lunch. All meals and snacks provided during the study were low fat and standardized. Additional water was allowed ad lib but there was no caffeine, smoking or alcohol and no vigorous exercise.
In treatments B and C, subjects consumed breakfast the day of the study. Breakfast commenced approximately 30 minutes prior to dosing with dosing occurring within 10 minutes after finishing the meal. One or more 25 mg or 100 mg capsules containing Compound No. 1 were administered to the subjects with 240 mL room temperature water. After dosing, subjects consumed no food until lunch and otherwise followed the same protocol as in treatment A.
In treatment B, a normal fat meal consisted of: toast with 1 pat of butter; a banana; 2% milk; apple juice; and Honey Nut Cheerios®. In treatment C, a high fat meal consisted of: 2 slices of buttered toast, 2 eggs fried in butter, 2 slices of bacon, 4 oz hash brown potatoes and 8 oz of whole milk.
Subjects received one or two doses. There was a washout period of at least 14 days between study drug administrations in those subjects dosed more than once. […] The actual dosing and sample times were recorded on a Case Report Form. At least 15 blood samples were collected during the period from pre-dose through 48 hours post-dose; in most subjects, additional samples were obtained at 60, 72, 120, 168 and 336 hours post-dose. Concentrations of Compound No. 1 were determined in plasma by BASi Northwest Laboratories Inc. (McMinnville, Oreg.) by LC-MS/MS. The lower limit of quantitation for Compound No. 1 was 0.05 ng/mL. Sample values below the lower limit of quantitation were reported as “<0.05 ng/mL”.
Pharmacokinetic parameters were obtained using compartmental methods. Relative exposure was quantified through the term relative bioavailability. In that none of the subjects received an intravenous dose of Compound No. 1, absolute bioavailability could not be determined. […] There were no protocol deviations that confounded the pharmacokinetic analyses.
Statistical analyses were performed using NONMEM version 5. Study results were not corrected for drug potency.

The structures appear in SMILES notation. Like-named read-outs stand apart in the source and are kept apart here. A value given as a limit tells only on which side of the number the result lay.

As for `O=C(CC(c1ccccc1)c1ccccc1)N1CCN(C(c2ccccc2)c2ccccc2)CC1` [Compound No. 1, 1-(3,3-diphenylpropionyl)-4-benzhydryl piperazine], for the setting “400 mg and 800 mg dosage”, the “bioavailability, normal fat meal vs high fat meal (individual plasma concentrations, FIGS. 3 and 4)” value is “increased bioavailability”. Moreover, the decrease of bioavailability (fasting compared to a normal fat meal) was 32%. Under “high fat meal compared to a normal fat meal”, the “increase of bioavailability of capsules” value is on record as 460%. Also, the bioavailability was 148% (typical value, read-out: Relative bioavailability, 25-mg capsules (relative to 100-mg capsules)) and 68.2% (oral capsules, typical value of compartmental NONMEM analysis, read-out: Relative bioavailability, Fasted (relative to normal-fat meal)). The Tmax by setting is: (subjects fasted) < 2 h; (subjects fed a high fat meal) 4 to 5 h; (subjects fed a normal fat meal) 2 to 5 h.
